Results from patent US5001133A, “Benzoic acid derivatives” (Sandoz Ltd., priority 1983, dated 1991).

Key:
[1] = system: M receptors for serotonin; conditions: isolated rabbit vagus nerve; cited from earlier work
[2] = target: T1, serotonin M receptor (Oryctolagus cuniculus, UniProt A0A5F9C9J3); assay: inhibition of the effect of serotonin on the isolated rabbit heart; conditions: antagonism of serotonin, read-out: pA2 (converted)
T1 construct: isolated rabbit heart; from tissue; host or cells: isolated rabbit heart
T1 sequence (A0A5F9C9J3 1-494): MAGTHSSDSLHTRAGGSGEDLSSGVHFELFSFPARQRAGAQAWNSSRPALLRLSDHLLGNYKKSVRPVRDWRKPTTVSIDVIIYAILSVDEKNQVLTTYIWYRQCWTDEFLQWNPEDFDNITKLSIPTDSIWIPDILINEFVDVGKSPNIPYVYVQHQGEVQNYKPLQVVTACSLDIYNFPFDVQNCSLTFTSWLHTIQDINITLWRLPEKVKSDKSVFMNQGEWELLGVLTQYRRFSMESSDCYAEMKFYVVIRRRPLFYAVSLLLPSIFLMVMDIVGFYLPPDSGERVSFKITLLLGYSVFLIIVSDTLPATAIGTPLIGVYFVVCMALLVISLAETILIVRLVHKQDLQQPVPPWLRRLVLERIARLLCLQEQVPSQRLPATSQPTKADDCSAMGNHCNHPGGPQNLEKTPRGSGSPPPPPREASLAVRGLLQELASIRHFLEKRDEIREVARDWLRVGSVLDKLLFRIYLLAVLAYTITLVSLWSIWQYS
Source text: The serotonin M receptor antagonist activity is also indicated by inhibiting the effect of serotonin on the isolated rabbit heart according to the method of J.R.Fozard and A.T.Moborak Ali, European Journal of Pharmacology, (1978), 49, 109-112 at concentrations of 10^-11 to 10^-5 M of the compound of the invention. pD'2 or pA2 values may be calculated in the conventional manner.
The compounds of formula I may be administered in similar manner to known standards for use in these utilities. The suitable daily dosage for a particular compound will depend on a number of factors such as its relative potency of activity.

[3] = system: 5-HT M-receptors; conditions: slow i.v. injection of 10 mg; cited from earlier work
[4] = system: serotonin M receptor; conditions: blister base, forearm of human volunteers; cited from earlier work

Row | SMILES | block of the action of serotonin on C fibre action potential amplitude [1] | further results
1 | CCN(CC)C(=O)[C@@H]1C=C2c3cccc4[nH]c(Br)c(c34)C[C@H]2N(C)C1 [BOL--148] | not blocked | 
2 | COC1CC2CC(OC(=O)c3c[nH]c4ccccc34)CC1N2C (stereo not drawn) [Example 2] |  | Kb [2]: 0.01 nM
3 | CCN(CC)CCNC(=O)c1cc(Cl)c(N)cc1OC [Metoclopramide] |  | effect on a migraine attack [3]: immediate beneficial effect
4 | CCN(CC)C(=O)[C@@H]1C=C2c3cccc4[nH]cc(c34)C[C@H]2N(C)C1 [lysergic acid diethylamide] |  | inhibition of the algesic action of serotonin [4]: not inhibited
5 | CC[C@@H](CO)NC(=O)[C@@H]1C=C2c3cccc4c3c(cn4C)C[C@H]2N(C)C1 [methysergide] | not blocked | 
6 | CSc1ccc2c(c1)C(N1CCN(C)CC1)Cc1ccccc1S2 (stereo not drawn) [metitepine] | not blocked | 
